We go through two compounds from patent publication US9560869B2, “Food composition comprising desferrichrysin” (NESTEC S.A., priority 2013, dated 2017).

Data set [1] can be described thus: Colour difference of iron fortified strawberry/banana yoghurt vs yoghurt with no iron salts after flash pasteurization (CIELAB). It counts as physicochemical. Here is the method:
(§1) Commercial yoghurt, Nestlé Jogolino™ Strawberry/Banana yoghurt containing 15% banana puree and 10% strawberry puree was iron fortified by the addition of different iron salts to 5 kg yoghurt as reported in the table below. The amounts were chosen to provide approximately 0.8 mg iron per 100 g yoghurt. […] Colour measurements were performed in 1×1 cm polystyrene cuvettes using an X-Rite ColorEye 7000A colorimeter. The colorimeter was set up with a D65 light source, 10 degree observer angle and with specular component included. The colour difference between the yoghurt with no iron salts and the iron fortified yoghurt was measured for each iron salt and expressed as ΔEab* using the CIELAB colour scale.

Data set [2] is described as follows: Colour change of fortified yoghurt during storage at 37° C. for 120 days (CIELAB). Particulars: for colour change over time (in words): stored at 37° C. for 120 days. The format is physicochemical. Here is the method: as §1, with “scale. 70 g samples of the fortified yoghurt samples described above were placed in 100 mL glass jars and stored at 37° C. for 120 days. Colour measurements were performed at a range of time intervals.” for “scale.”

For data set [3] the following is noted: in vivo; cited from earlier work.

Ferrichrysin: the “colour compared with yoghurt with no added iron (in words)” value in data set [1] (after flash pasteurization at 105° C. for 2 minutes) is “closest colour to the yoghurt with no added iron”. For the same compound, the “ΔEab*” value in data set [1] (colour difference vs yoghurt with no iron salts, approx. 0.8 mg iron per 100 g yoghurt, flash pasteurized at 105° C. for 2 minutes) is reported as 1.57. Further, the “colour change over time (in words)” value in data set [2] is reported as “smaller than the yoghurts fortified by the other iron salts”. In addition, the “ΔEab* day 7” value in data set [2] (stored at 37° C., vs colour immediately after pasteurization, day 7) was 1.03. In data set [2] (stored at 37° C., vs colour immediately after pasteurization, day 30), the “ΔEab* day 30” value was found to be 1.32. The “ΔEab* day 60” value in data set [2] (stored at 37° C., vs colour immediately after pasteurization, day 60) is recorded as 3.77. For the same compound, the “ΔEab* day 120” value in data set [2] (stored at 37° C., vs colour immediately after pasteurization, day 120) was found to be 6.46. The “bioavailability of iron (in words)” value in data set [3] is recorded as “good source of bioavailable iron”.

As for `O=S(=O)([O-])[O-].[Fe+2]` [FeSO4 × H20, Ferrous sulphate, reference compound], in data set [2], the “colour change over time (in words)” value is recorded as “much greater colour changes”.
